Test results reported in patent US20040259925A1, “Pharmaceutical compositions and methds for the prevention or treatment of cardiovascular, cardiopulmonary, pulmonary or renal diseases” (Boehringer Ingelheim Pharma GmbH & Co. KG, priority 2003, published 2004).

Experiments:
[1] = target: T1, human PPARgamma-ligand binding domain (LBD) (Homo sapiens, UniProt P37231); test: AlphaScreen: recruiting of biotinylated LXXLL peptide of cofactor CBP by GST-PPARgamma-LBD; assay type: biochemical; conditions: for direct activation of the PPARgamma-LBD / recruiting of the LXXLL peptide: concentrations of up to 50 μM; for MW (AlphaScreen signal): 4 hours
T1 construct: codes for the amino acids 205-505 of the human PPARgamma2 transcription factor; made in house; host or cells: E. coli BL21(DE3), vector pGEX-4T-1
T1 sequence (P37231 205-505): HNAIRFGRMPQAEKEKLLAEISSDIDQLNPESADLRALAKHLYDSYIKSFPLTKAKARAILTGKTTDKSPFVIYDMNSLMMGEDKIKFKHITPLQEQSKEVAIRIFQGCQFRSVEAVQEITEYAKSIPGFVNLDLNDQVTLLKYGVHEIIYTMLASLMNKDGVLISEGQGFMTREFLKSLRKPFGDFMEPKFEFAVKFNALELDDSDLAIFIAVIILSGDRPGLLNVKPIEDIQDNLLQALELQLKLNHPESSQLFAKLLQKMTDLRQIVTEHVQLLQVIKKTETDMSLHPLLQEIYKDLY
Procedure: Protein containing the human PPARgamma-ligand binding domain (LBD) was prepared as a GST fusion protein in E. coli and purified by affinity chromatography. […] The fusion protein was expressed in the E. coli strain BL21(DE3) recommended for pGEX vectors after induction with 0.2 mM IPTG for 4 hours at 25° C. The bacteria were pelleted after the induction and frozen in batches in PBS, pH 7.4. After opening up in a French Press, the dissolved GST-PPARgamma-LBD-fusion protein was purified using a GSTrap column (Pharmacia). Elution was carried out by the addition of 20 mM reduced glutathione. The GST-PPARgamma-LBD-protein fractions were desalinated using a HiTrap desalting column (Pharmacia) and the protein concentration was determined using a standard assay.
The assay buffer consisted of 25mM Hepes pH7.4, 100 mM NaCl, 1 mM DTT, 0.1% Tween-20, 0.1% BSA. […] The final DMSO concentration in the assay was 1% (v/v). A 1% DMSO solution was used as the background control (NSB). The measurement was done using a Packard fusion measuring device.

[2] = target: T2, human PPARgamma-ligand binding domain (LBD) (Homo sapiens, UniProt P37231); test: SPA assay: displacement of 3H-labelled rosiglitazone from GST-PPARgamma-LBD; conditions: for MW (SPA signal, bound 3H-rosiglitazone): 30 nM 3H-rosiglitazone, NSB 217, Bmax 911; for displacement of the radioactive rosiglitazone from the binding pocket: very large excesses of test substance
T2 sequence (P37231 205-505): T1 sequence (P37231 205-505)
T2 sequence (P19793 220-461 partner): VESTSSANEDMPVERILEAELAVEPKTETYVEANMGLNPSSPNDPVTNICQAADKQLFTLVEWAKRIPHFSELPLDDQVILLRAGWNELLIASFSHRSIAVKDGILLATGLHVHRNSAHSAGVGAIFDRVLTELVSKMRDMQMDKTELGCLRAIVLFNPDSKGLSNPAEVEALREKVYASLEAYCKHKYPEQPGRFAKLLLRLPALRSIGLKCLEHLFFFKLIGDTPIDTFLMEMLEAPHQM
Procedure: Protein containing the human PPARgamma-ligand binding domain (LBD) was prepared as a GST fusion protein in E. coli and purified by affinity chromatography. To do this, a DNA section which codes for the amino acids 205-505 of the human PPARgamma2 transcription factor (cf. Genbank entry U79012) was subcloned via the additionally inserted restriction cutting sites BamH I and Xho I into the expression vector pGEX-4T-1 (Amersham) and the sequence of the section was monitored. […] The bacteria were pelleted after the induction and frozen in batches in PBS, pH 7.4. After opening up in a French Press, the dissolved GST-PPARgamma-LBD-fusion protein was purified using a GSTrap column (Pharmacia). Elution was carried out by the addition of 20 mM reduced glutathione. The GST-PPARgamma-LBD-protein fractions were desalinated using a HiTrap desalting column (Pharmacia) and the protein concentration was determined using a standard assay. Protein containing the human RXRalpha ligand binding domain (LBD) was prepared as a His tag fusion protein in E. coli and purified by affinity chromatography. To do this a DNA section which codes for the amino acids 220-461 of the human RXRalpha transcription factor (cf. Genbank entry NM_002957, nt 729-1457) was subcloned via the additionally introduced restriction cutting sites BamH I and Not I into the expression vector pET28c (Novagen) and the sequence of the section was monitored. […] The bacteria were pelleted after the expression and frozen in batches in PBS, pH 7.4. After opening up in a French Press, the dissolved His-RXRalpha-LBD-fusion protein is purified using a HiTrap chelating column (Pharmacia). Elution was carried out using a 500 mM imidazole step. The His-RXRalpha-LBD protein fractions were desalinated using a HiTrap desalting column (Pharmacia) and the protein concentration was determined using a standard assay. A description of the SPA assay format can be found in Mukherjee R et al., J Steroid Biochem Mol Biol (2002) 81:217-225. The assay buffer consisted of 20 mM Tris pH 7.5, 25 mM KCl, 10 mM DTT, 0.2% Triton X-100).

[3] = target: T3, ligand binding domain of the human PPARgamma2 transcription factor fused to yeast GAL4 DNA binding domain (Homo sapiens, UniProt P37231); test: Luciferase activity in stably transformed PPARgamma reporter cell line (CHO-K1 clone 11); assay type: cell-based; conditions: for MW (luciferase activity): 24 hours
T3 construct: codes for amino acids 205-505 of the human PPARgamma2 transcription factor; expressed in transfected cells
T3 sequence (P37231 205-505): T1 sequence (P37231 205-505)
Source text: The cells used are CHO cells which are the result of transformation with two gene constructs.
The resulting plasmid pFA-CMV/hPPARgamma2-LBD codes N-terminally of the PPARgamma-LBD in the same reading frame for a Gal4 DNA binding domain. In addition the plasmid codes for neomycin resistance.
The cell line CHO-K1 (ATCC CCL-61) was cotransfected with the plasmids pFA-CMV/hPPARgamma2-LBD and pFR-Luc (Stratagene). pFR-Luc codes for the luciferase gene under the control of a five-times repeated yeast Gal4 binding site. The transfection was carried out with lipofectamine2000 in accordance with the manufacturer's instructions.
After six days' cultivation the cells were passaged and kept in culture for another 10 days. The resulting neomycin-resistant colonies were picked out under the microscope and transferred into 96 well dishes and cultured.
The test substances were brought to 100 times the desired concentration with a suitable solvent, e.g. DMSO, and diluted 1:100 with the medium placed in the cell culture plate. The solvent used, e.g. DMSO, was used as the background control in the same concentration.
Luminescence was measured after a five minute wait using a Packard TopCount NXT. The luciferase activity was obtained by integrating the relative luciferase units (RLU) of the first ten seconds after the start of measurement.

[4] = Dissolution of active substances from Tablet 3; assay type: physicochemical
Source text: This combination of active substances and excipients was then compressed with a suitable tablet press (e.g. Korsch EK0 or Fette P1200) to form tablets.

Row | Structure (SMILES) | direct activation of the PPARgamma-LBD / recruiting of the LXXLL peptide [1] | MW (SPA signal, bound 3H-rosiglitazone) ([2]; test substance 1.00E−04 M) | MW (SPA signal, bound 3H-rosiglitazone) ([2]; test substance 1.00E−05 M) | MW (SPA signal, bound 3H-rosiglitazone) ([2]; test substance 1.00E−06 M) | MW (SPA signal, bound 3H-rosiglitazone) ([2]; test substance 1.00E−07 M) | MW (SPA signal, bound 3H-rosiglitazone) ([2]; test substance 3.00E−05 M) | MW (SPA signal, bound 3H-rosiglitazone) ([2]; test substance 3.00E−06 M) | MW (SPA signal, bound 3H-rosiglitazone) ([2]; test substance 3.00E−07 M) | displacement of the radioactive rosiglitazone from the binding pocket [2] | activation of the PPARgamma pathway in the PPARgamma reporter cell line [3] | MW (luciferase activity) ([3]; test substance 1.00E−04 M) | MW (luciferase activity) ([3]; test substance 1.00E−05 M) | MW (luciferase activity) ([3]; test substance 1.00E−06 M) | MW (luciferase activity) ([3]; test substance 3.00E−05 M) | MW (luciferase activity) ([3]; test substance 3.00E−06 M) | MW (luciferase activity) ([3]; test substance 3.00E−07 M) | further results
1 | CCCCC1=NC2(CCCC2)C(=O)N1Cc1ccc(-c2ccccc2-c2nnn[nH]2)cc1 [irbesartan] | did not result in any direct activation of the PPARgamma-LBD | 510 | 723 | 815 | 913 | 648 | 779 | 810 | no concentration-dependent displacement | only at higher test concentrations and to a lesser extent | 29600 RLU | 3292 RLU | 657 RLU | 22133 RLU | 1028 RLU | 491 RLU | 
2 | CCCc1nc2c(C)cc(-c3nc4ccccc4n3C)cc2n1Cc1ccc(-c2ccccc2C(=O)[O-])cc1.[Na+] [telmisartan sodium salt] |  |  |  |  |  |  |  |  |  |  |  |  |  |  |  |  | dissolved after 30 minutes ([4]; Tablet 3, first batch, 900 ml 0.1 M phosphate buffer pH 7.5, 75 rpm): 92±1.5%; dissolved after 30 minutes ([4]; Tablet 3, second batch, 900 ml 0.1 M phosphate buffer pH 7.5, 75 rpm): 96±1.8%; dissolved after 30 minutes ([4]; Tablet 3, third batch, 900 ml 0.1 M phosphate buffer pH 7.5, 75 rpm): 100±1.0%
3 | CCCc1nc2c(C)cc(-c3nc4ccccc4n3C)cc2n1Cc1ccc(-c2ccccc2C(=O)O)cc1 [telmisartan, 4′-[2-n-propyl-4-methyl-6-(1-methylbenzimidazol-2-yl)-benzimidazol-1-ylmethyl]-biphenyl-2-carboxylic acid] | did not result in any direct activation of the PPARgamma-LBD | 545 | 703 | 818 | 837 | 691 | 818 | 802 | no concentration-dependent displacement | particularly potent activation |  | 61397 RLU | 2859 RLU | 58790 RLU | 24498 RLU | 760 RLU | MW (AlphaScreen signal) ([1]; test substance 1.00E−05 M): 847; MW (AlphaScreen signal) ([1]; test substance 1.00E−06 M): 677; MW (AlphaScreen signal) ([1]; test substance 1.00E−07 M): 606; MW (AlphaScreen signal) ([1]; test substance 3.00E−06 M): 720; MW (AlphaScreen signal) ([1]; test substance 3.00E−07 M): 644; MW (AlphaScreen signal) ([1]; test substance 3.00E−08 M): 642; MW (AlphaScreen signal) ([1]; test substance 5.00E−05 M): 1111
4 | NS(=O)(=O)c1cc2c(cc1Cl)NCNS2(=O)=O [hydrochlorothiazide] |  |  |  |  |  |  |  |  |  |  |  |  |  |  |  |  | dissolved after 30 minutes ([4]; Tablet 3, first batch, 900 ml 0.1 M HCl, 100 rpm): 69±6.3%; dissolved after 30 minutes ([4]; Tablet 3, second batch, 900 ml 0.1 M HCl, 100 rpm): 72±2.1%; dissolved after 30 minutes ([4]; Tablet 3, third batch, 900 ml 0.1 M HCl, 100 rpm): 78±1.8%
5 | CCCCc1nc(Cl)c(CO)n1Cc1ccc(-c2ccccc2-c2nn[nH]n2)cc1 [losartan] | did not result in any direct activation of the PPARgamma-LBD | 611 | 787 | 901 | 915 | 784 | 814 | 835 | no concentration-dependent displacement | only at higher test concentrations and to a lesser extent | 11322 RLU | 709 RLU | 589 RLU | 3271 RLU | 672 RLU | 874 RLU | 
